Laboratory results: patent US20120015925A1, “NOVEL BENZOTHIAZEPINE AND BENZOTHIEPINE COMPOUNDS” (ASAHI KASEI PHARMA CORPORATION, priority 2004, published 2012)

What was measured:
rats dosed cholic acid = assay: Lowering effect on bile acid concentrations in portal vein blood in rats dosed cholic acid; assay type: in vivo, rat
Procedure: In the present Test Example, a lowering effect on bile acid concentrations in portal vein blood in rats dosed cholic acid was evaluated according to the method described in Jpn. Pharmacol. Ther., Vol. 24 Supplement, 1996, 103(S-577)-110(S-584).
That is, SD (IGS) strain male rats at 7 to 9 weeks of age were fasted one day before the administration date. […] The blood was collected from the portal vein 2 hours after the forced oral administration, and a total bile acid value in serum was measured to examine the effect of the test compound (n=6). As a control, another group (n=6) merely received cholic acid (200 mg/kg), to which the same procedure was applied. The cholic acid value was measured using the commercially available kit (brand name: Total Bile Acid-Test Wako, supplied form Wako Pure Chemical Industries). Defining the value in the control group to which no test compound had been administered as being 100%, a reduction rate (%) of the bile acid value when a certain amount of the test compound had been administered was calculated.

human IBAT = biological target: T1, human IBAT (Homo sapiens, UniProt Q12908); assay: In vitro assay using Cos 7 cells, transiently expressed human IBAT; assay type: cell-based; details: [3H]-taurocholate 8 μM uptake, 37° C., 60 minutes
T1 sequence (Q12908 1-348): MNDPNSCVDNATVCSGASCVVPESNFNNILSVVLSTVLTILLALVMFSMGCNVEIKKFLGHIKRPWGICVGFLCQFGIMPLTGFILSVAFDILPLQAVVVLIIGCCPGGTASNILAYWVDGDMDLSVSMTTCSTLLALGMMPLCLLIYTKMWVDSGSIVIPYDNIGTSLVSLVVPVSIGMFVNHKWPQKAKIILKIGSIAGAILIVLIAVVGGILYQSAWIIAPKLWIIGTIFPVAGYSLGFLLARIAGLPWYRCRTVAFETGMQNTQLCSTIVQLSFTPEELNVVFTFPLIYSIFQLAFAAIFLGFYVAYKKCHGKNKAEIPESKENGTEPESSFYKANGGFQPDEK
Procedure: In the present Test Example, an in vitro assay of compounds using Cos 7 cells as to inhibitory activity on transiently expressed human IBAT or rat IBAT transporter was performed according to the method described in Am. J. Physiol., 274, G157-169.
That is, […] cells/well of Cos 7 cells were seeded in a 24-well plate, and after one day, the cells were transfected with 0.3 μg/well of cDNA of human IBAT or rat IBAT using FuGENE6 (supplied from Roche). After culturing for one day after the transfection, the cells were washed once with the assay buffer, i.e., Hanks buffer containing 25 mM glucose and 10 mM HEPES (pH 7.4). The assay buffer was then replaced with the assay buffer containing the test compound. [^3H]-Taurocholate at a final concentration of 8 μM was added thereto and incubated at 37° C. for 60 minutes so that [^3H]-taurocholate was taken into Cos 7 cells by the action of human IBAT or rat IBAT. The cells were washed twice with the assay buffer containing 1 mM taurocholate, and subsequently lysed with 0.2 M NaOH to stop the reaction. The cell lysate was added to 4 mL of liquid scintillation cocktail, which was then thoroughly vortexed. Then the radioactivity was measured using the liquid scintillation counter.

Caco-2 cell = assay: Gastrointestinal toxicity: cytotoxicity against Caco-2 cell (LDH activity); assay type: cell-based, human; details: for CELL TOXICITY AGAINST Caco2 3 μM / CELL TOXICITY AGAINST Caco2 10 μM / CELL TOXICITY AGAINST Caco2 30 μM: 2 hours, LDH activity in medium relative to cell lysis agent = 100%
Procedure: That is, 10,000 cells/well of Caco-2 cells (purchased from ATCC) were seeded in a 96-well plate [MEM-E medium, 10% FBS (Fetal Bovine Serum), 1% NEAA (Non Essential Amino Acid) solution, supplied from Gibco]. After culturing for 48 hours, the test compound diluted with the medium was added to each well. After 2 hours, 50 μL of the medium was collected, and an LDH activity in the medium was measured using an LDH activity measurement kit (CytoTox96 Non-Radioactive Cytotoxicity Assay, supplied from Promega). Defining the LDH activity of the Caco-2 cells treated with a cell lysis agent as being 100%, the relative activity was calculated as a index of the cytotoxicity.

[1] = 0.1 mg/kg oral with cholic acid 200 mg/kg, portal vein serum total bile acid 2 hours after, control = 100%, surfactant HCO-60 (##)
[2] = 0.1 mg/kg oral, surfactant Tween 20 0.05%, cholic acid 200 mg/kg, portal vein blood 2 hours after administration

IC50 (human IBAT) [nM]	SMILES	CELL TOXICITY AGAINST Caco2 3 μM (Caco-2 cell) [%]	CELL TOXICITY AGAINST Caco2 10 μM (Caco-2 cell) [%]	CELL TOXICITY AGAINST Caco2 30 μM (Caco-2 cell) [%]	also measured
45	CCCCC1(CCCC)CS(=O)(=O)c2ccc(N(C)C)cc2C(c2cccc(NC(=S)Nc3ccc(C[N+](C)(C)CCCC)cc3)c2)N1.[Br-] (racemic) [EXAMPLE 3409]	<1	<1	<1	BILE ACID REDUCTION RATE (%) IN RAT MODEL WITH CHOLIC ACID LOADING (rats dosed cholic acid; [1]): 28%
–	CCCCC1(CCCC)CS(=O)(=O)c2ccc(N(C)C)cc2C(c2cccc(NC(=S)Nc3ccc(C[N+](C)(C)CCOCCO)cc3)c2)N1.[Br-] (racemic) [EXAMPLE 3475]	–	–	–	BILE ACID REDUCTION RATE (%) IN RAT MODEL WITH CHOLIC ACID LOADING (rats dosed cholic acid; [1]): 19%
–	CCCCCC1(CCCCC)CS(=O)(=O)c2ccc(N(C)C)cc2C(c2cccc(NC(=S)Nc3ccc(C[N+]45CCC(CC4)CC5)cc3)c2)N1.[Br-] (racemic) [EXAMPLE 5735]	<1	<1	<1	–
–	CCCCCC1(CCCCC)CS(=O)(=O)c2ccc(N(C)C)cc2C(c2cccc(NC(=S)Nc3ccc(CC[N+](C)(C)Cc4ccccc4)cc3)c2)N1.[Br-] (racemic) [EXAMPLE 5856]	<1	<1	<1	–
–	CCCCCC1(CCCCC)CS(=O)(=O)c2ccc(N(C)C)cc2C(c2cccc(NC(=S)Nc3ccc(CC[N+]45CCC(CC4)CC5)cc3)c2)N1.[Br-] (racemic) [EXAMPLE 5857]	<1	<1	<1	–
–	CCCCC1(CCCC)CS(=O)(=O)c2ccc(N(C)C)cc2C(c2ccc(OCc3ccc(C[N+]45CCN(CC4)CC5)cc3)cc2)N1.[Cl-] (stereo not drawn) [Comparative Example, 1-{4-[4-(3,3-dibutyl-7-dimethylamino-1,1-dioxo-2,3,4,5-tetrahydro-1,4-benzothiazepine-5-yl)phenoxymethyl]benzyl}-4-aza-1-azoniabicyclo[2.2.2]octane chloride, reference compound]	–	–	–	cytotoxicity to the Caco-2 cell (Caco-2 cell; LDH activity in medium after 2 hours): exhibited the cytotoxicity to the small intestine epithelial cell line at low concentrations
170	CCCCC1(CCCC)CS(=O)(=O)c2ccc(N(C)C)cc2C(c2cccc(NC(=S)NCCC[N+](C)(C)Cc3ccccc3)c2)N1.[Br-] (stereo not drawn) [EXAMPLE 425]	–	–	–	BILE ACID REDUCTION RATE (%) IN RAT MODEL WITH CHOLIC ACID LOADING (rats dosed cholic acid; [2]): 21%
–	CCCCC1(CCCC)CS(=O)(=O)c2ccc(N(C)C)cc2C(c2cccc(NC(=S)NCCCC[N+](C)(C)Cc3ccccc3)c2)N1.[Br-] (stereo not drawn) [EXAMPLE 801]	–	–	–	BILE ACID REDUCTION RATE (%) IN RAT MODEL WITH CHOLIC ACID LOADING (rats dosed cholic acid; 0.1 mg/kg oral, surfactant HCO-60 0.1%, cholic acid 200 mg/kg, portal vein blood 2 hours after administration): 33%
54	CCCCC1(CCCC)CS(=O)(=O)c2ccc(N(C)C)cc2C(c2cccc(NC(=S)Nc3ccc(C[N+]45CCN(CC4)CC5)cc3)c2)N1.[Br-] (stereo not drawn) [EXAMPLE 3705]	<1	<1	<1	–
49	CCCCC1(CCCC)CS(=O)(=O)c2ccc(N(C)C)cc2C(c2cccc(NC(=S)Nc3ccc(C[n+]4ccc(C)cc4)cc3)c2)N1.[Br-] (stereo not drawn) [EXAMPLE 3709]	<1	<1	<1	–
25	CCCCc1ccc[n+](Cc2ccc(NC(=S)Nc3cccc(C4NC(CCCC)(CCCC)CS(=O)(=O)c5ccc(N(C)C)cc54)c3)cc2)c1.[Br-] (stereo not drawn) [EXAMPLE 3723]	<1	<1	<1	–
–	CCCCC1(CCCC)CS(=O)(=O)c2ccc(N(C)C)cc2C(c2cccc(NC(=S)Nc3ccc(C[n+]4cccc(CC#N)c4)cc3)c2)N1.[Br-] (stereo not drawn) [EXAMPLE 3759]	<1	<1	<1	BILE ACID REDUCTION RATE (%) IN RAT MODEL WITH CHOLIC ACID LOADING (rats dosed cholic acid; 0.3 mg/kg oral with cholic acid 200 mg/kg, portal vein serum total bile acid 2 hours after, control = 100%, surfactant HCO-60 (##)): 36%
–	CCCCC1(CCCC)CS(=O)(=O)c2ccc(N(C)C)cc2C(c2cccc(NC(=S)Nc3ccccc3C[N+]34CCC(CC3)CC4)c2)N1.[Br-] (stereo not drawn) [EXAMPLE 4905]	–	–	–	BILE ACID REDUCTION RATE (%) IN RAT MODEL WITH CHOLIC ACID LOADING (rats dosed cholic acid; [1]): 28%
–	CCCCCC1(CCCCC)CS(=O)(=O)c2ccc(N(C)C)cc2C(c2cccc(NC(=S)Nc3ccc(C[N+](C)(C)Cc4ccccc4)cc3)c2)N1.[Br-] (stereo not drawn) [EXAMPLE 5480]	<1	<1	<1	–
28	CCCCC1(CCCC)CS(=O)(=O)c2ccc(N(C)C)cc2C(c2cccc(NC(=S)Nc3ccc(C[N+]45CCC(c6ccccc6)(CC4)CC5)cc3C)c2)N1.[Br-] (stereo not drawn) [EXAMPLE P340]	–	<1	<1	–
19	CCCCC1(CCCC)CS(=O)(=O)c2ccc(N(C)C)cc2C(c2cccc(NC(=S)Nc3ccc(C[N+]45CCC(c6ccccc6)(CC4)CC5)cc3Cl)c2)N1.[Br-] (stereo not drawn) [EXAMPLE P344]	–	<1	<1	–
23	CCCCC1(CCCC)CS(=O)(=O)c2ccc(N(C)C)cc2C(c2cccc(NC(=S)Nc3ccc(C[N+]45CCC(c6ccccc6)(CC4)CC5)c(Cl)c3)c2)N1.[Br-] (stereo not drawn) [EXAMPLE P345]	–	<1	<1	–
24	CCCCC1(CCCC)CS(=O)(=O)c2ccc(N(C)C)cc2C(c2cccc(NC(=S)Nc3ccc(C[N+]45CCC(c6ccccc6)(CC4)CC5)c(Br)c3)c2)N1.[Br-] (stereo not drawn) [EXAMPLE P347]	–	<1	<1	–
22	CCCCC1(CCCC)CS(=O)(=O)c2ccc(N(C)C)cc2C(c2cccc(NC(=S)Nc3ccc(C[N+]45CCC(c6ccccc6)(CC4)CC5)c(C(F)(F)F)c3)c2)N1.[Br-] (stereo not drawn) [EXAMPLE P348]	–	<1	<1	–
–	CCCCC1(CCCC)CS(=O)(=O)c2ccc(N(C)C)cc2C(c2cccc(NC(=S)NCCC[N+]34CCC(CC3)CC4)c2)N1.[Br-] (stereo not drawn) [Example 9, 1-(3-{3-[3-(3,3-dibutyl-7-dimethylamino-1,1-dioxo-2,3,4,5-tetrahydro-1,4-benzothiazepine-5-yl)phenyl]thioureido}propyl)-1-azoniabicyclo[2.2.2]octane bromide]	–	–	–	BILE ACID REDUCTION RATE (%) IN RAT MODEL WITH CHOLIC ACID LOADING (rats dosed cholic acid; [2]): 13%
–	CCCCC1(CCCC)CS(=O)(=O)c2ccc(N(C)C)cc2C(c2ccc(NC(=S)Nc3ccc(C[N+](C)(C)Cc4ccccc4)cc3)cc2)N1.[Br-] (stereo not drawn) [Example 5405, Benzyl-(4-{3-[4-(3,3-dibutyl-7-dimethylamino-1,1-dioxo-2,3,4,5-tetrahydro-1,4-benzothiazepine-5-yl)phenyl]thioureido}benzyl)dimethylammonium bromide]	–	–	–	BILE ACID REDUCTION RATE (%) IN RAT MODEL WITH CHOLIC ACID LOADING (rats dosed cholic acid; po, 0.1 mg/kg, 2 h): 16%
–	CCCCC1(CCCC)CS(=O)(=O)c2ccc(N(C)C)cc2C(c2ccc(NC(=S)Nc3cccc(C[N+]45CCC(CC4)CC5)c3)cc2)N1.[Br-] (stereo not drawn) [Example 5406, 1-(3-{3-[4-(3,3-dibutyl-7-dimethylamino-1,1-dioxo-2,3,4,5-tetrahydro-1,4-benzothiazepine-5-yl)phenyl]thioureido}benzyl)-1-azoniabicyclo[2.2.2]octane bromide]	–	–	–	BILE ACID REDUCTION RATE (%) IN RAT MODEL WITH CHOLIC ACID LOADING (rats dosed cholic acid; po, 0.1 mg/kg, 2 h): 15%
